Patent US12319655B2, “RAF kinase inhibitors and methods of use thereof” (Deciphera Pharmaceuticals, LLC, priority 2021, dated 2025)

Assays:
[1] = biological target: C-Raf kinase (SEQ. ID NO: 3) (Homo sapiens (Human), UniProt P04049, Y340D/Y341D); test: Biochemical Assay for C-Raf (1); settings: Table J, assay version (1); read-out: CRAF (1) IC50
Procedure, shortened: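 Coupled pyruvate kinase/LDH assay tracking NADH oxidation at 340 nm, with 0.43 nM C-Raf, 30.1 nM MEK and 1 mM ATP in pH 7.5 Tris buffer (15 mM MgCl2, 1% DMSO final). Read continuously for 6 h at 30 °C, rate taken from the 4–5 h window. IC50 from four-parameter fit of percent inhibition.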

[2] = biological target: B-Raf (V600E) (SEQ. ID NO: 4) kinase (Homo sapiens (Human), UniProt P15056, V600E); test: Biochemical Assay for B-Raf (V600E) (1); settings: Table J, BRAF V600E, assay version (1); read-out: BRAF VE (1) IC50
B-Raf (V600E) (SEQ. ID NO: 4) kinase, sequence (P15056 416-766 V600E): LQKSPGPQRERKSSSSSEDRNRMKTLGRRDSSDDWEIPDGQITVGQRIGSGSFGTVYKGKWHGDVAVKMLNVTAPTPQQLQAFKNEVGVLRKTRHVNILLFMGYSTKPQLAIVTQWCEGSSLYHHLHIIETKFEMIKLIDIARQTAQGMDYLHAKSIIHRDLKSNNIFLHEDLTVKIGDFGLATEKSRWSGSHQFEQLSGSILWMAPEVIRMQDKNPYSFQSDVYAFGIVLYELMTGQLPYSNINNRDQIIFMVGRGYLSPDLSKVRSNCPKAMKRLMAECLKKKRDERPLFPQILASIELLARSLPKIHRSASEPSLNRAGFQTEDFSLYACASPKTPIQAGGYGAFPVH
Procedure, shortened: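 Coupled pyruvate kinase/lactate dehydrogenase assay: 0.03 nM B-Raf V600E, 30.1 nM MEK, 1 mM ATP, pH 7.5 Tris/MgCl2 buffer, 1% DMSO. NADH oxidation followed at 340 nm for 6 h at 30 °C; rate from 3–4 h converted to percent inhibition, IC50 by four-parameter fit.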

[3] = system: Miapaca-2 cells; test: MiaPaca-2 Cell Proliferation Assay (1); format: cell-based; settings: Homo sapiens, MIA PaCa-2, single agent, read-out: MiaPaca2 (1) IC50
Procedure, shortened: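 Resazurin was added after compound exposure and incubated 5-6 h, then fluorescence read at 540 nm excitation and 600 nm emission to give IC50.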

[4] = system: H2405 cells; test: H2405 Cell Proliferation Assay (1); format: cell-based; settings: Homo sapiens, NCI-H2405
Procedure, shortened: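 Viability was read by resazurin reduction (ex 540 nm, em 600 nm; 5-6 h with 40 μL of 440 μM stock) after 67-72 h compound exposure at 37 °C.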

C-Raf kinase (SEQ. ID NO: 3), sequence (P04049 307-648 Y340D/Y341D): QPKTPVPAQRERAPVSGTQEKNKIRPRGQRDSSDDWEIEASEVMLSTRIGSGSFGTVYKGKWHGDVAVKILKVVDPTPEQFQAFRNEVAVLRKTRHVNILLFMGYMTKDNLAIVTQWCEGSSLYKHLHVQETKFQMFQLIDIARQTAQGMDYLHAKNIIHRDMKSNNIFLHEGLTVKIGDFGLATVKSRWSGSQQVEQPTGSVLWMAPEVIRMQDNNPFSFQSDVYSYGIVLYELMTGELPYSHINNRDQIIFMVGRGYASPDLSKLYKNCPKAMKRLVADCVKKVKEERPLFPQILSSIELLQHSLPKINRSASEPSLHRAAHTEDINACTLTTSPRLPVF

IC50 [1] [nM] | IC50 [2] [nM] | IC50 [3] [nM] | IC50 [4] [nM] | SMILES
≤ 100 | ≤ 100 | 1000 to 10000 | – | CC(=O)Nc1cc(-c2cc(-c3cc(NC(=O)c4ccnc(C(F)(F)F)c4)ccc3C)cn(C)c2=O)ccn1 [Example 21, N-(3-(2′-acetamido-1-methyl-2-oxo-1,2-dihydro-[3,4′-bipyridin]-5-yl)-4-methylphenyl)-2-(trifluoromethyl)isonicotinamide]
≤ 100 | ≤ 100 | 1000 to 10000 | – | Cc1ccc(NC(=O)c2ccnc(C(C)(C)C#N)c2)cc1-c1nccc(-c2ccnc3c2CC(=O)N3)n1 [Example 22]
≤ 100 | ≤ 100 | 1000 to 10000 | – | CC(=O)Nc1cc(-c2nccc(-c3cc(NC(=O)c4ccnc(C(F)(F)F)c4)ccc3C)n2)ccn1 [Example 24]
≤ 100 | ≤ 100 | 1000 to 10000 | – | CNC(=O)c1cc(-c2nccc(-c3cc(NC(=O)c4ccnc(C(F)(F)F)c4)ccc3C)n2)ccn1 [Example 25]
≤ 100 | ≤ 100 | 1000 to 10000 | – | CC(=O)Nc1cc(-c2cc(-c3cc(C(=O)Nc4ccnc(C(F)(F)F)c4)ccc3C)ccn2)ccn1 [Example 26]
≤ 100 | ≤ 100 | 1000 to 10000 | – | CC(=O)Nc1cc(-c2cccc(-c3cc(NC(=O)c4ccnc(C(F)(F)F)c4)ccc3C)c2)ccn1 [Example 28]
≤ 100 | ≤ 100 | 1000 to 10000 | – | CNC(=O)c1cc(-c2cc(-c3cc(C(=O)Nc4ccnc(C(F)(F)F)c4)ccc3C)ccn2)ccn1 [Example 31]
≤ 100 | ≤ 100 | – | 1000 to 10000 | Cc1ncc(NC(=O)c2cn(C(C)C)nn2)cc1-c1nccc(-c2ccnc(NC(=O)C3CC3)c2)n1 [Example 285]
≤ 100 | ≤ 100 | – | 100 to 500 | Cc1ncc(NC(=O)c2cnnc(C3CC3)c2)cc1-c1nccc(-c2ccnc(NC(=O)C3CC3)c2)n1 [Example 294]
≤ 100 | ≤ 100 | – | 100 to 500 | COC(=O)Nc1cc(-c2cc(-c3cc(NC(=O)c4ccnc(C(C)(C)F)c4)c(F)cc3C)ccn2)ccn1 [Example 302]
≤ 100 | ≤ 100 | – | ≤ 100 | COC(=O)Nc1cc(-c2nccc(-c3cc(NC(=O)c4ccnc(C(C)(C)C#N)c4)c(F)cc3C)n2)ccn1 [Example 303]
≤ 100 | ≤ 100 | – | 100 to 500 | COC(=O)Nc1cc(-c2cnnc(-c3cc(NC(=O)c4cccc(C(C)(C)C#N)c4)ccc3C)c2)ccn1 [Example 311]
≤ 100 | 1000 to 10000 | – | 100 to 500 | COC(=O)Nc1cc(-c2cc(-c3cc(NC(=O)c4ccnc(C(F)F)c4)cnc3C)ccn2)ccn1 [Example 313]
100 to 500 | ≤ 100 | – | 500 to 1000 | CNC(=O)c1cc(-c2cnnc(-c3cc(NC(=O)c4ccnc(C(C)(C)C#N)c4)ccc3C)c2)ccn1 [Example 314]
≤ 100 | ≤ 100 | – | ≤ 100 | Cc1ccc(NC(=O)c2ccnc(C(C)(C)F)c2)cc1-c1cc(-c2ccnc(NC(=O)C3CC3)c2)cnn1 [Example 315]
100 to 500 | 100 to 500 | – | 1000 to 10000 | CNC(=O)c1cc(-c2cnnc(-c3cc(NC(=O)c4ccnc(C(C)(C)C#N)c4)cnc3C)c2)ccn1 [Example 316]
100 to 500 | 1000 to 10000 | – | 1000 to 10000 | CNC(=O)c1cc(-c2cnnc(-c3cc(NC(=O)c4ccnc(C5CC5)c4)cnc3C)c2)ccn1 [Example 317]
100 to 500 | 1000 to 10000 | – | 1000 to 10000 | CNC(=O)c1cc(-c2cnnc(-c3cc(NC(=O)c4ccnc(C(F)(F)F)c4)cnc3C)c2)ccn1 [Example 318]
≤ 100 | ≤ 100 | – | ≤ 100 | COC(C)(C)c1cc(C(=O)Nc2ccc(C)c(-c3cc(-c4ccnc(NC(=O)C5CC5)c4)cnn3)c2)ccn1 [Example 319]

IC50 [1] [nM] | IC50 [2] [nM] | IC50 [3] [nM] | IC50 [4] [nM] | SMILES
≤ 100 | 100 to 500 | – | 1000 to 10000 | Cc1ccc(NC(=O)c2cn(C(C)C)nn2)cc1-c1cc(-c2ccnc(NC(=O)C3CC3)c2)cnn1 [Example 320]
≤ 100 | ≤ 100 | – | 100 to 500 | Cc1ccc(NC(=O)c2cnn(C(C)(C)C)c2)cc1-c1cc(-c2ccnc(NC(=O)C3CC3)c2)cnn1 [Example 321]
1000 to 10000 | 1000 to 10000 | – | 1000 to 10000 | CNC(=O)c1cc(-c2cnnc(-c3cc(NC(=O)c4ccc(Cl)c(OC)c4)cnc3C)c2)ccn1 [Example 322]
≤ 100 | ≤ 100 | – | 100 to 500 | COC(=O)Nc1cc(-c2cc(-c3cc(NC(=O)c4ccnc(C(C)(C)F)c4)cnc3C)ccn2)ccn1 [Example 323]
100 to 500 | ≤ 100 | – | 100 to 500 | CNC(=O)c1cc(-c2cnnc(-c3cc(NC(=O)c4ccnc(C(C)(C)F)c4)ccc3C)c2)ccn1 [Example 325]
≤ 100 | 100 to 500 | – | 1000 to 10000 | CNC(=O)c1cc(-c2cnnc(-c3cc(NC(=O)c4ccnc(C5CC5)c4)ccc3C)c2)ccn1 [Example 326]
≤ 100 | 500 to 1000 | – | 1000 to 10000 | CNC(=O)c1cc(-c2cnnc(-c3cc(NC(=O)c4ccnc(C(F)F)c4)ccc3C)c2)ccn1 [Example 327]
100 to 500 | ≤ 100 | – | 100 to 500 | CNC(=O)c1cc(-c2cnnc(-c3cc(NC(=O)c4ccnc(C(C)(C)OC)c4)ccc3C)c2)ccn1 [Example 328]
≤ 100 | ≤ 100 | – | 500 to 1000 | CNC(=O)c1cc(-c2cnnc(-c3cc(NC(=O)c4ccc(F)c(C(F)(F)F)c4)ccc3C)c2)ccn1 [Example 329]
100 to 500 | 1000 to 10000 | – | 1000 to 10000 | CNC(=O)c1cc(-c2cnnc(-c3cc(NC(=O)c4ccnc(C(F)F)c4)cnc3C)c2)ccn1 [Example 330]
≤ 100 | ≤ 100 | – | 100 to 500 | Cc1ccc(NC(=O)c2ccnc(C3CC3)c2)cc1-c1cc(-c2ccnc(NC(=O)C3CC3)c2)cnn1 [Example 331]
≤ 100 | ≤ 100 | – | 1000 to 10000 | Cc1ccc(NC(=O)c2ccnc(S(C)(=O)=O)c2)cc1-c1cc(-c2ccnc(NC(=O)C3CC3)c2)cnn1 [Example 332]
1000 to 10000 | 1000 to 10000 | – | 1000 to 10000 | CNC(=O)c1cc(-c2cnnc(-c3cc(NC(=O)CCC(C)(C)C#N)cnc3C)c2)ccn1 [Example 333]
≤ 100 | ≤ 100 | – | – | CO[C@H]1CC[C@H](C(=O)Nc2ccc(C)c(-c3ccnc(-c4ccnc(NC(=O)C5CC5)c4)n3)c2)CC1 [Example 341]
≤ 100 | ≤ 100 | – | 1000 to 10000 | Cc1ccc(NC(=O)C2CN(C)CCO2)cc1-c1cccc(-c2cc(NC(=O)C3CC3)ncn2)c1 (centres unmarked) [Example 346]
100 to 500 | ≤ 100 | – | 1000 to 10000 | CO[C@H]1CC[C@H](C(=O)Nc2cnc(C)c(-c3cccc(-c4cc(NC(=O)C5CC5)ncn4)c3)c2)CC1 [Example 347]
≤ 100 | 500 to 1000 | – | 1000 to 10000 | CNC(=O)c1cc(-c2cc(-c3cc(NC(=O)CCC(C)(C)C#N)ccc3C)ccn2)ccn1 [Example 357]
≤ 100 | 500 to 1000 | – | 1000 to 10000 | CNC(=O)c1cc(-c2cc(-c3cc(NC(=O)COCC4CC4)ccc3C)ccn2)ccn1 [Example 358]
